Test results taken from patent US20180362935A1, “A renal cell line with stable transporter expression” (Stichting Katholieke Universiteit, priority 2015, published 2018).
Where “and” joins values, the source holds several entries; their conditions need not be identical. Equal values may be shown once. Read-outs that look alike come from different tables or passages of the source.

Legend:
[1] = test system: hOAT1-CHO and HEK-OAT1; conditions: Ref 35, 37, cited from earlier work
[2] = target: T1, OAT1 (Homo sapiens, UniProt Q4U2R8)
T1 sequence (Q4U2R8 1-550 isoform Q4U2R8-2): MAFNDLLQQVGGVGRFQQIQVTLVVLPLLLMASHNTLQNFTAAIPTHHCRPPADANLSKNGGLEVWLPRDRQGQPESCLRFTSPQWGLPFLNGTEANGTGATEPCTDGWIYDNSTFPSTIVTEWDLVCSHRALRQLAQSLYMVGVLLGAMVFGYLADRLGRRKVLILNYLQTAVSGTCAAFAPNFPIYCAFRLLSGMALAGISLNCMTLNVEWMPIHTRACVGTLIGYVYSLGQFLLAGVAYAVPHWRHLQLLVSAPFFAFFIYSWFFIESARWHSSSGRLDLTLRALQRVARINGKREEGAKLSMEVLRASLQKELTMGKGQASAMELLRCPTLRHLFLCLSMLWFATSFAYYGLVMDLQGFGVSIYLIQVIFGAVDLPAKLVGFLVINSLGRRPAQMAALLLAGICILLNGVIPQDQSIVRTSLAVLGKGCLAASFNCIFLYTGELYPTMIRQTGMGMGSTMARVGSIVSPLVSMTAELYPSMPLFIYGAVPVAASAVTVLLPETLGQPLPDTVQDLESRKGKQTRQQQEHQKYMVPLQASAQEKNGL

[3] = target: T2, OAT3 (Homo sapiens, UniProt Q8TCC7)
T2 sequence (Q8TCC7 1-542): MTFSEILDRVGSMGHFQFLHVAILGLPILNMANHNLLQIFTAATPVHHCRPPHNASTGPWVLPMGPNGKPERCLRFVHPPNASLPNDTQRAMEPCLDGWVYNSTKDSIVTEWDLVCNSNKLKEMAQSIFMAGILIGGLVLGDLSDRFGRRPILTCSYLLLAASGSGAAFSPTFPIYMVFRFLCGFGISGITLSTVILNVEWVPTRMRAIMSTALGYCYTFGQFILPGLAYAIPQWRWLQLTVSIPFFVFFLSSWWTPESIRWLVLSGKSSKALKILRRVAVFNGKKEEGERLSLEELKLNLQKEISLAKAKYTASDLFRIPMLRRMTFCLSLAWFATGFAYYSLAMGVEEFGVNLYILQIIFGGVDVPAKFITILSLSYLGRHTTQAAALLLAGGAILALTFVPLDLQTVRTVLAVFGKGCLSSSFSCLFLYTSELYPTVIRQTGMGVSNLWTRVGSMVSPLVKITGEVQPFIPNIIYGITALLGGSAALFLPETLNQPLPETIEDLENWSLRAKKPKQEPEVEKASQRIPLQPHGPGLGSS

[4] = test system: OAT1; assay: OAT1 gene expression in ciPTEC-OAT1 with or without EGF (quantitative PCR); assay type: cell-based, human; conditions: ciPTEC-OAT1, EGF 10 ng/mL, 48 hours
Experimental: ciPTEC-OAT1. 4B2 DSM ACC3279 was cultured in phenol red-free DMEM/F12 (Invitrogen, Breda, The Netherlands), as described in example 1 here above. Cells were seeded at a density of 63,000 cell/cm^2, cultured for 24 hours at 33° C. and subsequently at 37° C. for 7 days. To study the effects of EGF, matured ciPTEC-OAT1 were treated for 48 hours in the presence or absence of EGF (10 ng/mL).
OAT1 gene expression profiling was performed by isolating total RNA from cells grown in six-well plates, using an RNeasy Mini kit (Qiagen, Venlo, The Netherlands), according to the manufacturers specifications. Subsequently, cDNA was synthesized using the Omniscript RT-kit (Qiagen). Subsequently, quantitative PCR was performed in a CFX96 Real-Time PCR detection system (Bio-rad, Veenendaal, The Netherlands) according to the manufacturers conditions. GAPDH was used as reference gene for normalization and relative expression levels were calculated as fold change using the 2^−ΔΔCT method. The primer-probe sets for the quantitative PCR were obtained from Applied Biosystems: GAPDH—hs99999905 ml and OAT1—hs00537914.

[5] = target: T3, Xenopus-OAT3 (Homo sapiens, UniProt Q8TCC7); conditions: substrate estrone sulfate, Xenopus-OAT3, References 50, 53; read-out: IC50 (literature); cited from earlier work
T3 construct: host or cells: Xenopus oocytes
T3 sequence (Q8TCC7 1-542): T2 sequence (Q8TCC7 1-542)

[6] = Varma et al., 2009; cited from earlier work
[7] = test system: ciPTEC parent; assay: MTT viability assay in ciPTEC parent; assay type: cell-based, human; conditions: 10×Cmax (50 μM), with MRP4 inhibitor MK571 and BCRP inhibitor KO143
Experimental: (§1) Briefly, monolayers of ciPTEC (96-wells) were exposed to antivirals in serum-free medium (SFM) on day 6 of maturation. Cell toxicity was analyzed further in presence of multidrug resistance protein (MRP) efflux inhibitor MK571 (5 μM) and breast cancer resistance protein (BCRP) efflux inhibitor KO143 (10 μM). After incubation for 24, 48 and 72 h at 37° C., ciPTEC were washed and incubated with 0.5 mg/ml thiazolyl blue tetrazolium bromide (MTT, Sigma) for 3 h at 37° C. in absence of antivirals. Formazan crystals formed in viable cells were dissolved in dimethyl sulfoxide (DMSO, Merck, Whitehouse Station, USA) and optical density was measured (560 nm, background at 670 nm was subtracted) using Benchmark Plus (Bio-Rad, Hercules, USA).
(§2) Non-linear regression with variable slope constraining the top to 100% was used to fit the data after background subtraction with GraphPad Prism. Statistics was performed by two-way ANOVA (two-tailed, α=0.05) using GraphPad Prism as well. All data is presented as mean±SEM of at least three separate experiments (n=3) performed in triplicate, unless stated otherwise.

[8] = test system: ciPTEC-OAT1; assay: MTT viability assay in ciPTEC-OAT1; assay type: cell-based, human; conditions: for Cell viability (MTT) relative to no exposure: ciPTEC-OAT1, 1 mM, 48 h; for IC50: serum free medium, mean ± SEM, n ≥ 3
[9] = test system: ciPTEC-OAT3; assay: MTT viability assay in ciPTEC-OAT3
Experimental: as §1, §2

[10] = target: OCT2 (Homo sapiens, UniProt O15244); conditions: ASP+ 1 μM, 60 min, HBSS, 37° C.; similar IC50 in ciPTEC parent, ciPTEC-OAT1 and ciPTEC-OAT3 (p>0.05)
[11] = target: T4, CHO-OAT3 (Homo sapiens, UniProt Q8TCC7); conditions: substrate Sitagliptin, CHO-OAT3, Reference 51; read-out: IC50 (literature); cited from earlier work
T4 construct: host or cells: CHO
T4 sequence (Q8TCC7 1-542): T2 sequence (Q8TCC7 1-542)

[12] = target: T5, CHO-OAT1 (Homo sapiens, UniProt Q4U2R8); conditions: read-out: KI (literature), cited from earlier work
T5 construct: host or cells: CHO
T5 sequence (Q4U2R8 1-563): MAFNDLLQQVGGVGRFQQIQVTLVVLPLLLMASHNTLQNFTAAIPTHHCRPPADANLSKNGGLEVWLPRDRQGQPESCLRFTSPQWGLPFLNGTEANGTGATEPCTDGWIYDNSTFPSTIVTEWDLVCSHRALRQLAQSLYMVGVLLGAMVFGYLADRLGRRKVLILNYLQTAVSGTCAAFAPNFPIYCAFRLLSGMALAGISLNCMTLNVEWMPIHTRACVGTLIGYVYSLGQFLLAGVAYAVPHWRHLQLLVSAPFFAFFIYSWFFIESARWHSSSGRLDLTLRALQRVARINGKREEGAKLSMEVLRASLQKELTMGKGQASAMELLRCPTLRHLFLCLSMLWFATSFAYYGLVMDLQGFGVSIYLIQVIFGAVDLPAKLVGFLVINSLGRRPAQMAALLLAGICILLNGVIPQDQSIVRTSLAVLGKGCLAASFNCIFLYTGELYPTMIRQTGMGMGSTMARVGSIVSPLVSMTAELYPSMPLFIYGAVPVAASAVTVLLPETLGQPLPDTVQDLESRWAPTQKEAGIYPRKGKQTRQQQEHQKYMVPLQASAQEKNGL

[13] = target: T6, HeLa-OAT1 (Homo sapiens, UniProt Q4U2R8); conditions: substrate PAH, HeLa-OAT1, Ref. 29; read-out: IC50 (literature); cited from earlier work
T6 construct: host or cells: HeLa
T6 sequence (Q4U2R8 1-563): T5 sequence (Q4U2R8 1-563)

[14] = 120 h, read-out: Inhibitory potency on cell viability, literature 120 h
[15] = read-out: Inhibitory potency on cell viability, literature 48 h, 48 h

OCT2, sequence (O15244 whole entry): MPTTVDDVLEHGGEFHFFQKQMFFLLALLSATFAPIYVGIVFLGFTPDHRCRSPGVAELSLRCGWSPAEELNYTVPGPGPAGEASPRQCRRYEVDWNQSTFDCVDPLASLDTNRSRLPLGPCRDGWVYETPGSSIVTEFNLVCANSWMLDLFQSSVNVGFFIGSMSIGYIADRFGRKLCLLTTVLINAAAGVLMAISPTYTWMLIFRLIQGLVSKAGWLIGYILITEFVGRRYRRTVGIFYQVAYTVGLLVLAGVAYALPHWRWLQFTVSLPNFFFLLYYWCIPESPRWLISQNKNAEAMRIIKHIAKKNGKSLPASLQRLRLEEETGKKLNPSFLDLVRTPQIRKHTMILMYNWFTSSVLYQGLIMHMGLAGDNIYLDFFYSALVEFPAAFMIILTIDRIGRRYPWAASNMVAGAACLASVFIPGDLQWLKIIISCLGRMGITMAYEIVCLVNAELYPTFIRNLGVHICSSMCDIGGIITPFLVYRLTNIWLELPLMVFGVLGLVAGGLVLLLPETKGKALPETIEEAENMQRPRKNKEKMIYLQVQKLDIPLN

Molecule: Nc1ccn(C[C@@H](CO)OCP(=O)(O)O)c(=O)n1 [Cidofovir]
- IC50 [1, 14]: 3 ± 1 µM
- IC50 [1, 15]: 0.5 ± 0.2 µM
- IC50 [2]: 71 ± 34 µM

Molecule: O=C1OC2(c3ccc(O)cc3Oc3cc(O)ccc32)c2ccccc21 [fluorescein]
- Km [2]: 0.8 ± 0.1 µM
- Km [3]: 3.7 ± 0.5 µM

Molecule: EGF: Epidermal growth factor (NSDSECPLSHDGYCLHDGVCMYIEALDKYACNCVVGYIGERCQYRDLKWWELR; Epidermal growth factor; UniProt P01133 971-1023, looked up)
- OAT1 gene expression [4]: significantly increased

Molecule: estrone sulfate
- IC50 [3]: 2.1 ± 0.3 µM
- IC50 [5]: 3 µM

Molecule: Cc1cn([C@H]2C[C@H](N=[N+]=[N-])[C@@H](CO)O2)c(=O)[nH]c1=O [Zidovudine]
- Fraction eliminated via the urine without metabolic alterations [6]: 23%
- Cell viability with efflux inhibitors [7]: did not affect cell viability
- Cell viability with efflux inhibitors ([8]; ciPTEC-OAT1, 10×Cmax (50 μM), with MK571 and KO143): did not affect cell viability
- Cell viability as determined by the MTT assay ([8]; ciPTEC-OAT1 and ciPTEC-OAT3, exposure for 24-72 h): did not affect cell viability
- Cell viability with efflux inhibitors ([9]; ciPTEC-OAT3, 10×Cmax (50 μM), with MK571 and KO143): did not affect cell viability

Molecule: Nc1ccc(C(=O)NCC(=O)O)cc1 [para-aminohippuric acid]
- IC50 [3]: 152 ± 3 µM

Molecule: CN/C(=N/CCSCc1nc[nH]c1C)NC#N [Cimetidine]
- IC50 [2]: 654 ± 291 µM
- IC50 [3]: 215 ± 162 µM
- Inhibition of ASP+ uptake at OCT2 [10]: significant inhibition
- IC50 [5]: 53 µM
- IC50 [11]: 79 µM

Molecule: C[C@H](Cn1cnc2c(N)ncnc21)OCP(=O)(O)O [Tenofovir]
- IC50 [1, 14]: 21 ± 7 µM
- IC50 [1, 15]: 10 ± 2 µM
- DDI index Cmax/IC50 [2]: 0.014 and 0.019
- IC50 [2]: 42 ± 8 µM
- Ki ([12]; Ref. 35, substrate and cell line not given): 33.8 µM
- IC50 [13]: 29.3 µM
- Cell viability (MTT) relative to no exposure [8]: significantly affected
- IC50 ([8]; ciPTEC-OAT1, 24 h exposure, read-out: Inhibitory potency on cell viability (MTT), 24 h): 114 ± 25 µM
- IC50 ([8]; ciPTEC-OAT1, 72 h exposure, read-out: Inhibitory potency on cell viability (MTT), 72 h): 223 ± 67 µM
- IC50 ([8]; read-out: Inhibitory potency on cell viability (MTT), 48 h, ciPTEC-OAT1, 48 h exposure): 189 ± 48 µM
- Cell viability (MTT) relative to no exposure ([9]; ciPTEC-OAT3, 1 mM, 48 h): slightly decreased

Molecule: Nc1ncnc2c1ncn2CCOCP(=O)(O)O [Adefovir]
- IC50 [1, 14]: 1.4 ± 0.7 µM
- IC50 [1, 15]: 0.22 ± 0.08 µM
- IC50 [2]: 23 ± 4 µM
- Ki ([12]; CHO-OAT1, substrate not given): 23.8 µM
- IC50 [13]: 8.1 µM
- Cell viability (MTT) relative to no exposure [8]: significantly affected
